Reference: US5560923A (Georgetown University, priority 1994, dated 1996)

How the values were obtained:
[1] = Complex formation of drug with cardiolipin-containing liposomes (centrifugation, spectrophotometry of supernatant); type: physicochemical; conditions: same conditions as doxorubicin, mixed with cardiolipin-containing liposomes
Procedure: Formation of the complex liposome-doxorubicin was evaluated relative to the time of the incubation at 25° C. following the mixing of both components (FIG. 1).
Association capacity of doxorubicin to cardiolipin-liposomes was evaluated for different concentrations of mixture of both components mixed in the same volume (5 ml) after an incubation of 15 min. at 37° C. at a fixed liposome/doxorubicin weight ratio of 11 (Table 1).

[2] = test system: LZ cells; test: Clonogenic assay, cytotoxicity / multidrug resistance reversal in LZ cells; conditions: mixed with cardiolipin-containing liposomes
Procedure: Percent survival of treated cells was determined relative to untreated control.

Compound: CC[C@]1(O)C[C@H]2CN(CCc3c([nH]c4ccccc34)[C@@](C(=O)OC)(c3cc4c(cc3OC)N(C=O)[C@H]3[C@@](O)(C(=O)OC)[C@H](OC(C)=O)[C@]5(CC)C=CCN6CC[C@]43[C@@H]65)C2)C1 [vincristine]
- association between drug and liposome (in words) [1]: no association between drug and liposome was formed
- increase in drug cytotoxicity (in words) [2]: no increase in drug cytotoxicity was observed
